Assay results: patent publication US20060078584A1, “Multi-functional oxidizing composition” (priority 2004, published 2006)
Read-outs that look alike come from different tables or passages of the source.

What was measured:
[1] = cited from earlier work
[2] = Storage stability of dry blends (ambient and accelerated aging in humid oven); type: physicochemical; conditions: one month
Experimental: In all examples, active oxidant concentrations are expressed in weight percent and are determined by standard iodometric titration as described in the “OXONE Monopersulfate Compound Technical Information” Bulletin, No. H-42434-5, dated April 2000, published by E. I. du Pont de Nemours and Company.
A weighed sample (0.05-0.30 g) to be analyzed is dissolved in cold deionized water (<10° C., about 50 mL), treated with potassium iodide solution (10 mL 25% aqueous), acidified (10 mL 20% sulfuric acid), and titrated with standardized 0.1N sodium thiosulfate reagent to an endpoint visualized by a starch indicator. The total active oxidant content (active oxygen+active halogen) is expressed as percent active oxygen (% AO) and is calculated as follows: % AO=(0.8×Volume of titrant, mL)(Normality of titrant)/(Sample Weight, g).
OXONE monopersulfate compound (180 g, 90 wt. %) and anhydrous sodium dichloro-s-triazinetrione (20 g, 10 wt. %) were dry blended in a 250-ml high-density poly(propylene (HDPE) bottle. The mixture was placed on a laboratory roll mill for two hours to ensure complete blending of the components. The blended product was then divided into two portions. One portion was stored at ambient conditions (22±2° C., 55±5% relative humidity [RH]); the other in a humid oven at 50±2° C., 80±5% RH denoted as “accelerated aging”). Both portions were stored in sealed screw-cap HDPE bottles. Both samples were monitored on a weekly basis for one month to assess physical integrity and active oxidant loss. […]. […].

[3] = Solubility in water and in acidic potassium monopersulfate solution; conditions: in a 20% potassium monopersulfate solution, pH of about 1.2
[4] = accelerated aging, 50° C., 80% RH
[5] = accelerated aging, 50±2° C., 80±5% RH, sealed HDPE containers

In the case of `CC1(C)C(=O)N(Br)C(=O)N1Cl` [bromochlorodimethylhydantion, 3-bromo-1-chloro-5,5-dimethylhydantoin], the Solubility in water [1] is given as 0.2 g/100 g water.
For `O=c1nc([O-])n(Cl)c(=O)n1Cl.[Na+]` [Comparative Example E, Anhydrous sodium dichloro-s-triazinetrione], the “Active oxidant retention / loss” value [2, 4] was “acceptable active oxidant stability”, the “Chlorine odor / halogen evolution” value [2, 4] was “characteristic chlorine odor” and the “Flowability” value [2, 4] was “good flowability”. The “Chlorine Odor (degree 0-5)” value [2, 5] was 3, the Flowability [2, 5] was “Free-flowing” and the “Total % AO Remaining (%)” value ([2]; total oxidant (active oxygen + active halogen) remaining after accelerated storage, 50° C., 80% RH) was 93%. For the same molecule, the Solubility in water ([1]; neutral pH (about pH 6-7), 25° C.) was “about 24 g/100 g H2O” and the Solubility [3] was “about 1 g/100 mL”.
In the case of `CC1(C)C(=O)N(Br)C(=O)N1Br` [dibromodimethylhydantion, 1,3-dibromo-5,5-dimethylhydantoin], the Solubility in water [1] is listed as 0.25 g/100 g water.
In the case of `CC1(C)C(=O)N(Cl)C(=O)N1Cl` [dichlorodimethylhydantion, 1,3-dichloro-5,5-dimethylhydantoin], the Solubility in water [1] is given as 0.2 g/100 g water.
